pIC50: −log10 of the molar value.
What was measured:
PKA = PKA activation (VASP phosphorylation, western blot) in U2OS-EPAC1 cells; assay type: cell-based; settings: 100 µM test compound, FIG. 5
Protocol: FIG. 5. PKA activation results of representative newly discovered EPAC1 agonists. U2OS cells stably transfected with EPAC1 were treated with 100 µM of test compounds, cyclic nucleotide EPAC1 agonist 2 or 10 µM of forskolin and rolipram (F/R), cyclic AMP elevating agents, as a positive control. Active, phosphorylated VASP (P-VASP) was visualized using a phospho-specific, anti-VASP antibody. None of the test compounds promoted VASP phosphorylation in cells.
PKA and GPCR Selectivity. To investigate the EPAC selectivity of these EPAC agonists, compounds 25g, 25n and 25q were selected for further PKA activation studies, and the results are shown in FIG. 5. PKA activation was assessed by monitoring phosphorylation state of a downstream PKA effector, vasodilator-stimulated phosphoprotein (VASP).
(§1) SDS-PAGE and Western Blotting. Samples were prepared by mixing equal volumes of cell lysate and 2x SDS sample loading buffer and denaturing for 5 min at 95° C., unless indicated otherwise. Protein samples were separated by SDS-PAGE on 10% (v/v) polyacrylamide gels, for EPAC1 and VASP, or on 12.5% (v/v), for Rap1, and then transferred to nitrocellulose membranes. Membranes were then blocked for 1 h at room temperature in 5% (w/v) non-fat dry milk or 5% (w/v) BSA in Tris-buffered saline containing 0.1% (v/v) Tween 20, followed by an overnight incubation with primary antibody diluted in blocking buffer at 4° C. Subsequently, the membranes were incubated with appropriate horseradish peroxidase-conjugated secondary antibodies for 1 h at room temperature. For signal detection the SuperSignal West Pico PLUS Chemiluminescent Substrate (Thermo Scientific) was used. Images were acquired using the Fusion FX7 camera platform (Vilber). Densitometry was performed with ImageJ.

EPAC1-CNBD = target: T1, EPAC1-CNBD (Homo sapiens, UniProt O95398); test: 8-NBD-cAMP competition binding assay, EPAC1-CNBD; settings: for EPAC1 binding potency / affinity in words: SAR comment on RFI, mostly relative to 3 or 9a; for RFI (%) (relative fluorescence intensity), Table 4: compound 10 µM, EPAC1-CNBD 0.8 µM, 8-NBD-cAMP 62.5 nM, mean ± SEM, lower RFI = stronger binding; for pIC50: read-out: IC50 for the EPAC1-CNBD, dose-response, FIG. 3; for IC50 values as EPAC1 binders (in words): summary statement
T1 sequence (O95398 169-318 isoform O95398-3): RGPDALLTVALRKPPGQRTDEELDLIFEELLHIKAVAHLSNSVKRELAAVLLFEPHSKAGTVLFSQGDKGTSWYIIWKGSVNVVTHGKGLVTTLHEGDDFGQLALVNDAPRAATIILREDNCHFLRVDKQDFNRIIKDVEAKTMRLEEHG

over 40 GPCR targets = test: Counter screening over a panel of GPCR targets; assay type: binding; settings: panel of over 40 GPCR proteins
EPAC1 = target: T2, EPAC1 (Homo sapiens, UniProt O95398); test: Active Rap1 pull-down in U2OS cells stably transfected with EPAC1; assay type: cell-based; design: expressed in transfected cells; host or cells: U2OS cells (from Professor Holger Rehmann, University of Utrecht); settings: for Rap1 activation in EPAC1 cells: U2OS-EPAC1, 100 µM compound, 10 min, FIG. 7; for activation of EPAC1 by compound 2 (Rap1-GTP levels): U2OS-EPAC1 cells, in the presence of EPAC1 agonist 2 (007), FIG. 4
T2 sequence (O95398 1-923): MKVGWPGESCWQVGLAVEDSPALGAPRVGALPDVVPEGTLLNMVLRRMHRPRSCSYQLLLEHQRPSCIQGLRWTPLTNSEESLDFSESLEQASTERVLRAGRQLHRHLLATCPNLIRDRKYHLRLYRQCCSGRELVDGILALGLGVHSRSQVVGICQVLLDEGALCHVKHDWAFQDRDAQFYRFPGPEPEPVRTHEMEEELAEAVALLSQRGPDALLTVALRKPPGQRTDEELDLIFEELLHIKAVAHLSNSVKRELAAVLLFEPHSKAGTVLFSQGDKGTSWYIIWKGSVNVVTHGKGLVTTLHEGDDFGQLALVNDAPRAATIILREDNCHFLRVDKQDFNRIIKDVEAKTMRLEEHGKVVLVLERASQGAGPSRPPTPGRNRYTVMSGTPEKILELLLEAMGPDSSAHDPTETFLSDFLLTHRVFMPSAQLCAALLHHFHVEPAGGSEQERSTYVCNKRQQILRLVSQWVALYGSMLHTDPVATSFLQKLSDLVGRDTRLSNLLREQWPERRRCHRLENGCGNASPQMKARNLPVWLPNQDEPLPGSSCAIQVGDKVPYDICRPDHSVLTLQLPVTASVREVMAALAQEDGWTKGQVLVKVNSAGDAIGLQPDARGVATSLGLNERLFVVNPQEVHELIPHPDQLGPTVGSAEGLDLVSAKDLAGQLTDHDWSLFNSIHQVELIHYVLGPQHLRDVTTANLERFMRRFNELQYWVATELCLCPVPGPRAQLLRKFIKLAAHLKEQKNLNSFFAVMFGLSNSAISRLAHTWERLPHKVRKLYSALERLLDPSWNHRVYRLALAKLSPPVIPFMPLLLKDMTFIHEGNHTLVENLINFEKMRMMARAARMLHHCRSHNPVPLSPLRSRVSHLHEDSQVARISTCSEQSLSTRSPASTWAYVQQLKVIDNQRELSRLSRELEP
Protocol: Series Expansion and EPAC1 vs EPAC2 Selectivity. GEF assay was used to further screen all newly synthesis analogues at 10 µM, to identify additional activating compounds to expand the series of EPAC1 agonists (FIG. 6). […] Having now identified an expanded exemplary series of compounds as potential EPAC1 activators the ability of 25e, 25f, 25g, 25n and 25u to activate EPAC1 and EPAC2 in cellular Rap1 activation assays (FIG. 7) were compared. For these U2OS cells transfected with either EPAC1 or EPAC2 (FIG. 7) was used. […] Densitometry was carried out on all immunoblots and the ratio of EPAC1 to EPAC2 activation was calculated and presented in a bar graph in FIG. 8.
Active Rap1 Pull-down. U2OS cells (from Professor Holger Rehmann, University of Utrecht) stably transfected with EPAC1 or EPAC2 were cultured in 6-well plates in DMEM, high glucose, supplemented with 10% (v/v) FBS, 1% (v/v) GlutaMAX, 1% (v/v) Penicillin-Streptomycin and 2 mg/l puromycin (to ensure selection of stable transfectants). 80% confluent cells were starved in culture medium with reduced FBS concentration (0.5 %) for 16 h and then stimulated for 10 min with either vehicle, 100 µM of studied compounds, or 50 µM of 2 in case of U2OS-EPAC1 or 100 µM of compound 4 for U2OS-EPAC2. Cells were then rinsed with ice-cold PBS and lysed in 0.5 ml cell lysis buffer (Cell Signaling Technologies) supplemented with 10 mM MgCl2 and 1 mM PMSF, followed by clearing the lysates by centrifugation. Cell lysates were incubated for 1 h (4° C., gentle agitation) with 40 µg GST-RalGDS-RBD immobilized on Glutathione Sepharose 4B (GE Healthcare) to selectively capture GTP-bound Rap1. Later on, the glutathione resin was separated from supernatant by centrifugation, washed three times with cell lysis buffer, then resuspended in 2x SDS sample loading buffer and denatured for 5 min at 95° C.
as §1

## COc1ccc2ccc(OCC(=O)NS(=O)(=O)c3ccc4ccccc4c3)cc2c1 [Compound 25q, 2-((7-Methoxynaphthalen-2-yl)oxy)-N-(naphthalen-2-ylsulfonyl)acetamide]
PKA
  PKA activation (VASP phosphorylation): did not induce any PKA activation
EPAC1-CNBD
  EPAC1 binding potency / affinity in words: significantly enhanced binding potency
  RFI (%) (relative fluorescence intensity), Table 4: 14 ± 3%
  pIC50: 5.66
  IC50 values as EPAC1 binders (in words): low micromolar to sub-micromolar
Over 40 GPCR targets
  off-target effects towards GPCR proteins: none of them displays the potential off-target effects
EPAC1
  Rap1 activation in EPAC1 cells: activate EPAC1 in cells

## COc1ccc2ccc(OCC(=O)NS(=O)(=O)c3ccc(N)cc3OC)cc2c1 [Compound 25n, N-((4-Amino-2-methoxyphenyl)sulfonyl)-2-((7-methoxynaphthalen-2-yl)oxy)acetamide]
PKA
  PKA activation (VASP phosphorylation): did not induce any PKA activation
EPAC1-CNBD
  RFI (%) (relative fluorescence intensity), Table 4: 7 ± 1%
  pIC50: 6.05
  IC50 values as EPAC1 binders (in words): low micromolar to sub-micromolar
Over 40 GPCR targets
  off-target effects towards GPCR proteins: none of them displays the potential off-target effects
EPAC1
  Rap1 activation in EPAC1 cells: activate EPAC1 in cells
  activation of EPAC1 by compound 2 (Rap1-GTP levels): enhanced

## COc1ccc(S(=O)(=O)NC(=O)COc2ccc3ccccc3c2)c(OC)c1 [Compound 25g, N-((2,4-Dimethoxyphenyl)sulfonyl)-2-(naphthalen-2-yloxy)acetamide]
PKA
  PKA activation (VASP phosphorylation): did not induce any PKA activation
EPAC1-CNBD
  EPAC1 binding potency / affinity in words: much more potent
  RFI (%) (relative fluorescence intensity), Table 4: 23 ± 4%
  pIC50: 5.32
  IC50 values as EPAC1 binders (in words): low micromolar to sub-micromolar
EPAC1
  Rap1 activation in EPAC1 cells: activate EPAC1 in cells
  activation of EPAC1 by compound 2 (Rap1-GTP levels): enhanced

Reference: US20230150929A1, “SELECTIVE NON-CYCLIC NUCLEOTIDE ACTIVATORS FOR THE CAMP SENSOR EPAC1” (The Board of Regents of The University of Texas System, priority 2020, published 2023)
